From US20250302743A1, “METHODS OF TREATING DERMATOLOGICAL CONDITIONS AND SYMPTOMS THEREOF” (KAMARI PHARMA LTD., priority 2022, published 2025)

How the values were obtained:
DS-Nh mice = experiment: DS-Nh mouse model, topical dosing (scratching behavior, skin histology); assay type: in vivo
Source text: DS-Nh mice raised under conventional conditions spontaneously develop dermatitis and skin abnormalities characterized by hyperkeratosis, reduced basal keratinocytes proliferation, defective differentiation, and keratinization of skin appendages.
At the end of the study, the mice were sacrificed, and skin biopsies were paraffin-embedded, stained with hematoxylin and eosin (H&E) and assessed microscopically (FIG. 7).

[1] = Blood concentrations in minipig dermal toxicity study (13 weeks); assay type: in vivo; settings: for AUC0-tlast / Cmax: MiniPig, 6 g/day
Method: (§1) I: Blood concentrations of KM-001 were evaluated using a validated analytical method as part of the toxicity studies in minipigs and rats.

[2] = 28-day oral repeat dose toxicity study, systemic exposure; assay type: in vivo, rat; settings: for AUC0-tlast / Cmax: Rat, oral
Method: as §1

[3] = Estimated human systemic exposure and safety margins (dose-linear extrapolation from minipig PK)
Method: as §1

[4] = Plasma concentration in AEW pruritus study, oral dosing; assay type: in vivo, mouse; settings: mice, oral 0.1 mg/kg
Method: (§2) The efficacy of KM-001 was assessed in an acetone-ether-water (AEW)-induced pruritus model in male C57BL/6J mice, a model induced by daily treatment of an acetone/ether (1:1) mixture and water applied to the animal's cheek. KM-001 (10 mg/kg, 1 mg/kg, 0.1 mg/kg and 0.01 mg/kg) was administered orally to 20 mice. The amount of time spent scratching and the number of bouts during the 20 minutes were recorded by an observer. Blood and skin samples were collected at 0, 0.5 hr, 1 hr and 1.5 hr post dosing.

male C57BL/6J mice = experiment: Acetone-ether-water (AEW)-induced pruritus model, oral dosing; assay type: in vivo, mouse
Method: as §2

[5] = Saturated solubility, shake flask method, UPLC-UV; assay type: physicochemical; settings: for Saturated Solubility API: RT, 24 hours
Method: Saturated solubility was determined using the shake flask method with excess API at room temperature (RT). It was assumed that equilibrium was attained after 24 hours, and excess solid was separated by ultrafiltration prior to dilution and quantification. Quantification of KM-001 for saturated solubility studies was performed using a qualified UPLC-UV analytical method.

keratinocytes = settings: found in US 2002/0332697 A1, cited from earlier work
TRPV3 = TRPV3 (Homo sapiens, UniProt Q8NET8); settings: read-out: IC50 (inhibit TRPV3); found in US 2002/0332697 A1; cited from earlier work
Chain of TRPV3 (Q8NET8 whole entry, species assumed): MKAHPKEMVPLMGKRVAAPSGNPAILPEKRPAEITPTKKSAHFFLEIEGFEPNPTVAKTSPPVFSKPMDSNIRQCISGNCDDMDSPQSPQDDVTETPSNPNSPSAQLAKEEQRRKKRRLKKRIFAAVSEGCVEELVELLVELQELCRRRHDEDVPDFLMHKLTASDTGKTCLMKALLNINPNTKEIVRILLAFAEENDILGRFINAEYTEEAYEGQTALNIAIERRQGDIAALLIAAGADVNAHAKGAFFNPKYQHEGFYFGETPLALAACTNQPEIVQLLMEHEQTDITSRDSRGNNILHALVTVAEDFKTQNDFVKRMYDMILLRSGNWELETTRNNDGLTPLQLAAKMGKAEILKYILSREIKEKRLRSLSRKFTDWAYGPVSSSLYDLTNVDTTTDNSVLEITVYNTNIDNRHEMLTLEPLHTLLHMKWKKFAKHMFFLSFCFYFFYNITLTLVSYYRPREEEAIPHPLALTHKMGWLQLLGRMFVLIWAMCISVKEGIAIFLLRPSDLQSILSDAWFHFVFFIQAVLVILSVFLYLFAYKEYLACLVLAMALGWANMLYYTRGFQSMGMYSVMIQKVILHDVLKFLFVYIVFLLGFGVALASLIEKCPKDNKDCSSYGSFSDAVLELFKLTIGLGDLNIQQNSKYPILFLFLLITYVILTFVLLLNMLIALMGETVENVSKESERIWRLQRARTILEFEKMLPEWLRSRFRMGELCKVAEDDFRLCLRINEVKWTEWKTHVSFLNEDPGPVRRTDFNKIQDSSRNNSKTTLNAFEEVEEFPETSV

[6] = 0.5% formulation, 2.25 mg/kg*day, Week 13
[7] = 1.0% formulation, 4.5 mg/kg*day, Week 13

C=CC[C@@H]1/C=C(\C)C[C@H](C)C[C@H](OC)[C@H]2O[C@@](O)(C(=O)C(=O)N3CCCC[C@H]3C(=O)O[C@H](/C(C)=C/[C@@H]3CC[C@@H](O)[C@H](OC)C3)[C@H](C)[C@@H](O)CC1=O)[C@H](C)C[C@@H]2OC [tacrolimus 0.1%, tacrolimus]
reduction in scratch (DS-Nh mice; day 14, twice daily topical treatment): 20% | mice exhibiting normalization of skin pathology (DS-Nh mice; two weeks of treatment, H&E histology, partial normalization for tacrolimus): 40 % of mice

(S)-2-(1,3-dimethyl-2-6-dioxo-2,3-1h-purin-7(6H)-N-(4-(3-Fluoro-4-2methylpyrrolidin-1-yl)phenyl)thiazol-2-yl)acetamide [KM-001]
AUC0-tlast ([1]; 0.1% formulation, 0.45 mg/kg*day, Week 13): 16.6 ng·h/mL | Cmax ([1]; 0.1% formulation, 0.45 mg/kg*day, Week 13, mean male and female): 2.3 ng/mL | AUC0-tlast [1, 6]: 73.7 ng·h/mL | Cmax [1, 6]: 5.3 ng/mL | AUC0-tlast [1, 7]: 159 ng·h/mL | Cmax [1, 7]: 10.8 ng/mL | AUC ([1]; minipigs, 4.5 mg KM-001/kg/day): 159.1 ng·h/mL | NOAEL ([2]; 28-day oral repeat dose toxicity study in the rat): 10 mg/kg/day | AUC0-tlast ([2]; 1 mg/kg*day, Day 28): 479 ng·h/mL | Cmax ([2]; 1 mg/kg*day, Day 28, mean male and female): 97 ng/mL | AUC0-tlast ([2]; 5 mg/kg*day, Day 28): 4570 ng·h/mL | Cmax ([2]; 5 mg/kg*day, Day 28): 525 ng/mL | Cmax ([2]; 10 mg/kg*day (NOAEL), Day 28): 968 ng/mL | AUC0-tlast ([2]; 10 mg/kg*day, Day 28): 8360 ng·h/mL | AUC ([2]; rat, 28-day oral repeat dose, at NOAEL of 10 mg/kg/day): 8357 ng·h/mL | safety margin for AUC, rat vs estimated human exposure ([3]; 0.3%): 836 fold | AUC, estimated human systemic exposure ([3]; 0.3% cream): approx. 10 ng/mL*h | safety margin for AUC, rat vs estimated human exposure ([3]; 1%): 261 fold | AUC, estimated human systemic exposure ([3]; 1% cream): ~32 ng·h/mL | safety margin for Cmax, rat vs estimated human exposure ([3]; 1% cream-gel): approx. 242 fold | Dose MiniPig API (safety factor) ([3]; Human dermal 0.3% formulation vs minipig dose): 34 | Dose MiniPig API (safety factor) ([3]; Human dermal 1.0% formulation vs minipig dose): 11 | maximum plasma concentration (Cmax) [4]: 1.34 ng/mL | scratching bouts (male C57BL/6J mice; oral 0.01 mg/kg): trended to decrease | scratching time (male C57BL/6J mice; oral 0.01 mg/kg): trended to decrease | scratching time (male C57BL/6J mice; oral 0.1 mg/kg, p<0.001): significantly decreased | scratching bouts (male C57BL/6J mice; oral 0.1 mg/kg, p<0.01): significantly decreased | solubility in triglycerides and fatty alcohols [5]: relatively soluble | Saturated Solubility API ([5]; M1: Miglyol 812 N 33.3%, Arlamol E 62.5%, Phenoxy-2-ethanol 4.2%): 13.1 % w/w | Saturated Solubility API ([5]; M2: Miglyol 812 N 8%, Arlamol E 15%, Macrol-82 77%): 0.7 % w/w | Saturated Solubility API ([5]; M3: Miglyol 812 N 10%, Kollicream OD 10%, Macrol-82 75%, Kollicream OA 5%): 1.5 % w/w | Saturated Solubility API ([5]; M6: Miglyol 812 N 20%, Arlamol E 16%, Kollicream OA 10%, Macrol-82 54%): 4.0 % w/w | Saturated Solubility API ([5]; M10: Miglyol 812 N 20%, Crodamol IPM 21.85%, Kollicream OA 5%, Light Mineral Oil 53.15%): 1.6 % w/w | Saturated Solubility API ([5]; M13: Miglyol 812 N 47.83%, Kollicream OD 52.17%): 13.0 % w/w | Saturated Solubility API ([5]; M14: Miglyol 812 N 45.83%, Kollicream OD 50%, Phenoxy-2-ethanol 4.17%): 14.0 % w/w | Ca^+2 flux in keratinocytes (keratinocytes): significantly reduced | differentiation markers (keratinocytes; keratinocytes): normalized | IC50 (TRPV3): ~3 nM
